# Earlier results, collected in PubChem BioAssay AID1259409 (Chemical Carcinogenesis Research Information System (CCRIS), 2018).
# System: rodent chemically induced tumor inhibition, incidence and multiplicity
# Assay: CCRIS tumor inhibitor studies
# Details: Route [Inhibitor]: ORAL
compound,measurement,setting,value
Cc1c(-c2cnccn2)ssc1=S,"tumour outcome (control, treated, inhibition, significance)","Carcinogen: DIETHYLNITROSAMINE, 55-18-5, Dose [Inhibitor]: 0, 600 MG/KG DIET FOR DURATION OF STUDY BEGINNING 1 WK PRIOR TO CARCINOGEN TREATMENT (STUDY DURATION: 25 WK), Species: HAMSTER, Strain/Sex: SYRIAN/MALE, Target Tissue: Type of Lesion: TRACHEA: PAPILLOMA, Dose [Carcinogen]: 17.8 MG/KG BW 2/WK FOR 20 WK, Promoter: NONE USED","100%, 95%, 5%, not significant"
same,"tumour outcome (control, treated, inhibition, significance)","Carcinogen: N-BUTYL-N(4-HYDROXYBUTYL)NITROSAMINE, 3817-11-6, Dose [Inhibitor]: 0, 250 MG/KG DIET FOR 6 MO BEGINNING 1 WK PRIOR TO CARCINOGEN TREATMENT (STUDY DURATION: 6 MO), Species: MOUSE, Strain/Sex: BDF/MALE, Target Tissue: Type of Lesion: URINARY BLADDER: CARCINOMA, Dose [Carcinogen]: 7.5 MG IN 0.1 ML ETHANOL:WATER (20:80) 1/WK FOR 8 WK, Promoter: NONE USED","35/78 (45%), 23/76 (30%), 33%, p<0.05"
same,"tumour outcome (control, treated, inhibition, significance)","Carcinogen: N-BUTYL-N-(4-HYDROXYBUTYL)NITROSAMINE, 3817-11-6, Dose [Inhibitor]: 0, 100 MG/KG DIET FOR 6 MO BEGINNING 1 WK PRIOR TO CARCINOGEN TREATMENT (STUDY DURATION: 6 MO), Species: MOUSE, Strain/Sex: BDF/MALE, Target Tissue: Type of Lesion: URINARY BLADDER: CARCINOMA, Dose [Carcinogen]: 7.5 MG IN 0.1 ML ETHANOL:WATER (20:80) 1 WK FOR 8 WK, Promoter: NONE USED","27/70 (39%), 27/70 (39%), 0%, not significant"
same,"tumour outcome (control, treated, inhibition, significance)","Carcinogen: N-BUTYL-N-(4-HYDROXYBUTYL)NITROSAMINE, 3817-11-6, Dose [Inhibitor]: 0, 200 MG/KG DIET FOR 6 MO BEGINNING 1 WK PRIOR TO CARCINOGEN TREATMENT (STUDY DURATION: 6 MO), Species: MOUSE, Strain/Sex: BDF/MALE, Target Tissue: Type of Lesion: URINARY BLADDER: CARCINOMA, Dose [Carcinogen]: 7.5 MG IN 0.1 ML ETHANOL:WATER (20:80) 1/WK FOR 8 WK, Promoter: NONE USED","30/73 (41%), 27/71 (38%), 7%, not calculated"
same,"tumour outcome (control, treated, inhibition, significance)","Carcinogen: N-BUTYL-N-(4-HYDROXYBUTYL)NITROSAMINE, 3817-11-6, Dose [Inhibitor]: 0, 500 MG/KG DIET FOR 76 D THEN 125 MG/KG DIET FOR DURATION OF STUDY (STUDY DURATION: 6 MO), Species: MOUSE, Strain/Sex: BDF/MALE, Target Tissue: Type of Lesion: URINARY BLADDER: CARCINOMA, Dose [Carcinogen]: 7.5 MG IN 0.1 ML ETHANOL:WATER (20:80) 1/WK FOR 8 WK, Promoter: NONE USED","35/78 (45%), 23/78 (29%), 36%, p<0.05"
same,"tumour outcome (control, treated, inhibition, significance)","Carcinogen: N-METHYL-N'-NITRO-N-NITROSOGUANIDINE, 70-25-7, Dose [Inhibitor]: 0, 0.02% IN DIET FOR 12 WK BEGINNING 1 WK PRIOR TO CARCINOGEN TREATMENT (STUDY DURATION: 80 WK), Species: RAT, Strain/Sex: WISTAR/MALE, Target Tissue: Type of Lesion: GLANDULAR STOMACH: ADENOCARCINOMA, Dose [Carcinogen]: 100 PPM IN DRINKING WATER FOR 10 WK, Promoter: NONE USED","17/30 (57%), 11/30 (37%), 35%, not calculated"
same,"tumour outcome (control, treated, inhibition, significance)","Carcinogen: N-METHYL-N'-NITRO-N-NITROSOGUANIDINE, 70-25-7, Dose [Inhibitor]: 0, 0.04% IN DIET FOR 12 WK BEGINNING 1 WK PRIOR TO CARCINOGEN TREATMENT (STUDY DURATION: 80 WK), Species: RAT, Strain/Sex: WISTAR/MALE, Target Tissue: Type of Lesion: GLANDULAR STOMACH: ADENOCARCINOMA, Dose [Carcinogen]: 100 PPM IN DRINKING WATER FOR 10 WK, Promoter: NONE USED","17/30 (57%), 5/30 (17%), 70%, p<0.01"
same,"tumour outcome (control, treated, inhibition, significance)","Carcinogen: N-METHYL-N'-NITRO-N-NITROSOGUANIDINE, 70-25-7, Dose [Inhibitor]: 0, 0.04% IN DIET FOR 12 WK BEGINNING 1 WK PRIOR TO CARCINOGEN TREATMENT (STUDY DURATION: 81 WK), Species: RAT, Strain/Sex: WISTAR/MALE, Target Tissue: Type of Lesion: GLANDULAR STOMACH: ADENOCARCINOMA, Dose [Carcinogen]: 100 PPM IN DRINKING WATER FOR 10 WK, Promoter: NONE USED","17/30 (57%), 5/30 (17%), 70%, p<0.01"
same,"tumour outcome (control, treated, inhibition, significance)","Carcinogen: N-METHYL-N'-NITRO-NITROSOGUANIDINE, 70-25-7, Dose [Inhibitor]: 0, 0.02% IN DIET FOR 12 WK BEGINNING 1 WK PRIOR TO CARCINOGEN TREATMENT (STUDY DURATION: 81 WK), Species: RAT, Strain/Sex: WISTAR/MALE, Target Tissue: Type of Lesion: GLANDULAR STOMACH: ADENOCARCINOMA, Dose [Carcinogen]: 100 PPM IN DRINKING WATER FOR 10 WK, Promoter: NONE USED","17/30 (57%), 11/30 (37%), 35%, not significant"
same,outcome,"Carcinogen: N-NITROSOBIS(2-OXOPROPYL)AMINE, 60599-38-4, Dose [Inhibitor]: 0, 300 MG/KG IN DIET FOR 28 WK BEGINNING 2 WK PRIOR TO CARCINOGEN TREATMENT (STUDY DURATION: 28 WK), Species: HAMSTER, Strain/Sex: SYRIAN/FEMALE, Target Tissue: Type of Lesion: PANCREAS: DUCTAL ADENOCARCINOMA, Dose [Carcinogen]: 15 MG/KG BW 1/WK FOR 12 WK, Promoter: NONE USED","17/19 (89%), 14/16 (88%), 1 %, not significant"
same,"tumour outcome (control, treated, inhibition, significance)","Carcinogen: N-NITROSOBIS(2-OXOPROPYL)AMINE, 60599-38-4, Dose [Inhibitor]: 0, 600 MG/KG IN DIET FOR 28 WK BEGINNING 2 WK PRIOR TO CARCINOGEN TREATMENT (STUDY DURATION: 28 WK), Species: HAMSTER, Strain/Sex: SYRIAN/FEMALE, Target Tissue: Type of Lesion: PANCREAS: DUCTAL ADENOCARCINOMA, Dose [Carcinogen]: 15 MG/KG BW 1/WK FOR 12 WK, Promoter: NONE USED","17/19 (89%), 9/15 (60%), 33%, p<0.05"
same,"tumour outcome (control, treated, inhibition, significance)","Carcinogen: NITROSOBIS(2-OXOPROPYL)AMINE [60599-38-4], Dose [Inhibitor]: 200 PPM IN DIET FOR 4 WK BEGINNING 1 WK PRIOR TO FIRST CARCINOGEN DOSE (STUDY DURATION: 52 WK), Species: HAMSTER, Strain/Sex: SYRIAN/FEMALE, Target Tissue: Type of Lesion: GALL BLADDER: ADENOMA, Dose [Carcinogen]: 10 MG/KG BW 1X/WK FOR 3 WK (STUDY DURATION: 52 WK)","13.3%, 21.7%, -63%, not significant"
same,"tumour outcome (control, treated, inhibition, significance)","Carcinogen: NITROSOBIS(2-OXOPROPYL)AMINE [60599-38-4], Dose [Inhibitor]: 200 PPM IN DIET FOR 4 WK BEGINNING 1 WK PRIOR TO FIRST CARCINOGEN DOSE (STUDY DURATION: 52 WK), Species: HAMSTER, Strain/Sex: SYRIAN/FEMALE, Target Tissue: Type of Lesion: KIDNEY: RENAL CELL ADENOMA, Dose [Carcinogen]: 10 MG/KG BW 1X/WK FOR 3 WK (STUDY DURATION: 52 WK)","3.3%, 3.4%, -3%, not significant"
same,"tumour outcome (control, treated, inhibition, significance)","Carcinogen: NITROSOBIS(2-OXOPROPYL)AMINE [60599-38-4], Dose [Inhibitor]: 200 PPM IN DIET FOR 4 WK BEGINNING 1 WK PRIOR TO FIRST CARCINOGEN DOSE (STUDY DURATION: 52 WK), Species: HAMSTER, Strain/Sex: SYRIAN/FEMALE, Target Tissue: Type of Lesion: KIDNEY: RENAL CELL CARCINOMA, Dose [Carcinogen]: 10 MG/KG BW 1X/WK FOR 3 WK (STUDY DURATION: 52 WK)","6.7%, 10.3%, -54%, not significant"
same,"tumour outcome (control, treated, inhibition, significance)","Carcinogen: NITROSOBIS(2-OXOPROPYL)AMINE [60599-38-4], Dose [Inhibitor]: 200 PPM IN DIET FOR 4 WK BEGINNING 1 WK PRIOR TO FIRST CARCINOGEN DOSE (STUDY DURATION: 52 WK), Species: HAMSTER, Strain/Sex: SYRIAN/FEMALE, Target Tissue: Type of Lesion: LIVER: CHOLANGIOCELLULAR ADENOMA, Dose [Carcinogen]: 10 MG/KG BW 1X/WK FOR 3 WK (STUDY DURATION: 52 WK)","6.7%, 0.0%, 100%, not significant"
same,outcome,"Carcinogen: NITROSOBIS(2-OXOPROPYL)AMINE [60599-38-4], Dose [Inhibitor]: 200 PPM IN DIET FOR 4 WK BEGINNING 1 WK PRIOR TO FIRST CARCINOGEN DOSE (STUDY DURATION: 52 WK), Species: HAMSTER, Strain/Sex: SYRIAN/FEMALE, Target Tissue: Type of Lesion: LIVER: CHOLANGIOCELLULAR CARCINOMA, Dose [Carcinogen]: 10 MG/KG BW 1X/WK FOR 3 WK (STUDY DURATION: 52 WK)","0.0%, 10.3%, -100%, not significant"
